Like-named read-outs stand apart in the source and are kept apart here.
Key:
Caco-2 cells [1] = test system: Caco-2 cells
[2] = buffer
U373-MAGI-CXCR4CEM cells = conditions: at 5 μM, data not shown
[3] = pH 7.4, reported for the parent compound; cited from earlier work
in vitro = conditions: human, Caco-2, pH 7.4
Caco-2 cells [4] = experiment: Caco-2 assay to assess permeability; conditions: divalerate prodrug versus parent drug

SMILES | Permeability (Caco-2 cells [1]; Caco-2) | Permeability of prodrug relative to parent compound (Caco-2 cells [1]; Caco-2) | Permeability (Caco-2 cells [1]; Caco-2, pH 7.4) | Half-life at pH 2.0 [2] | Half-life at pH 4.65 [2] | Half-life at pH 7.4 [2] | Decrease in cell proliferation (U373-MAGI-CXCR4CEM cells) | Half-life at pH 7.4 [3] | recovery at 60 min, 10 μM (in vitro) | Permeability of prodrug relative to parent compound (Caco-2 cells [4])
CCCCC(=O)OC[C@H]1O[C@@H](n2cnc(N)nc2=O)C[C@@H]1OC(=O)CCCC [Decitabine divalerate, decitabine divalerate] | 3.2e-06 cm/s | fourfold higher | 3.2 10^−6 cm/s | 17 h | 36 h | 28 h | less than 5% | – | – | –
Nc1ncn([C@H]2C[C@H](O)[C@@H](CO)O2)c(=O)n1 [Decitabine, 5-aza-2′-deoxycytidine] | – | – | – | – | – | – | – | 12.9 ±0.9 h | 91% | –
CCCCC(=O)OC[C@H]1O[C@@H](n2ccc(N)nc2=O)C(F)(F)[C@@H]1OC(=O)CCCC [Gemcitabine divalerate, gemcitabine divalerate] | 2.1e-06 cm/s | – | 2.1 10^−6 cm/s | 85 h | 247 h | 135 h | – | – | – | 4.2 fold
Nc1ccn([C@@H]2O[C@H](CO)[C@@H](O)C2(F)F)c(=O)n1 [Gemcitabine, 2′,2′-difluoro-2′-deoxycytidine] | – | – | – | – | – | – | – | – | 111% | –
